Entries after “also recorded” stand apart in the source; their conditions may differ.
What was measured:
[1] = test system: iNOS protein; experiment: iNOS protein expression (Western Immunoblot); type: cell-based, human
Description: (§1) Whole cell extracts were prepared from 3 x 10^6 chondrocytes stimulated as described above by lysing the cells on the plate with ice cold lysis buffer (10 mM TrisHCl pH 7.6, 158 mM NaCl, 1 mM EDTA, 0.1% SDS, 1% Triton X-100, leupeptin […], aprotinin 1µg/ml, and 0.5 mM PMSF), which was added immediately before use. The lysates were transferred to Eppendorf tubes and centrifuged at 20,000 g for 30 min at 4 °C. The supernatants were transferred into fresh tubes, and the protein concentration was determined by Bradford assay. Similar amounts of protein were separated by 10% SDS PAGE and transferred to a nitrocellulose filter (Schleicher & Schuell, Keene, NH) by electroblotting. The filter was blocked overnight in 5% milk powder/TBS-T solution and then further incubated with one of the following antibodies: anti-iNOS (C-19, Santa Cruz Biotechnology, Inc., Santa Cruz, CA), anti-COX-2 (Cayman Chemical, Ann Arbor, MI), anti-COX-1 (H-3, Santa Cruz Biotechnology, Inc.), anti-phospho-JNK (phosphoThr 183 /Tyr 185, New England Biolabs, Inc., Beverly, MA), anti-phospho-p38MAP (phospho-Thr […]/Tyr 182, New England Biolabs, Inc.) or anti-phospho-ERK (phosphoThr 180/Tyr 182, New England Biolabs, Inc.) for 2 hrs. […]

[2] = test system: TNFα induced nitric oxide (NO) production in normal human articular chondrocytes; experiment: TNFα induced NO production in chondrocytes; type: cell-based
[3] = test system: ERK; experiment: IL-1β induced MAP kinase activation, ERK (phospho Western blot); type: cell-based, human; details: induced by IL-1β
Description: as §1

[4] = test system: iNOS mRNA; experiment: iNOS mRNA expression (Northern Blot); type: cell-based, human
Description: Total RNA was isolated from 2 x 10^6 chondrocytes stimulated using the STAT-60 reagent (Tel-Test, Friendswood, TX). RNA for each sample was quantified photometrically, and 5 µg was separated on 1.2% agarose, 6% formaldehyde gels. After electrophoresis, the gels were photographed, and the RNA was transferred onto HybondN nylon membranes (BRL, Baithesburg, MD) by capillary blotting. Membranes were air-dried and incubated for 2 hrs at 80°C. Prehybridization was done for 2 hrs at 60°C in 5 x SCC, 1 mM EDTA, 0.2% SDS and 5 x Denhardt solution. Radio-labeled probe was added and hybridization was carried out overnight at 60°C. After hybridization, the filters were rinsed twice in 2 x SSC, 0.1% SDS, washed once in 2 x SCC, 0.1 % SDS at 60°C and once in 0.2 x SCC, 0.1 % SDS at 60°C. The membranes were covered with plastic wrap and exposed with an intensifying screen for 12 hr at -70°C. The probes used for the hybridization were prepared as described earlier (Geng et al., (1993) J. Immunol. 151:6692; Geller et al., (1993) Proc. Natl. Acad. Sci. USA 90:3491).

[5] = test system: COX-1 protein; experiment: COX-1 protein expression in chondrocytes (Western Immunoblot); type: cell-based, human
Description: as §1

[6] = In vivo retention of GlcNAc in knee joints after intra-articular administration; parameters: species or system Wistar rats
Description: 50 µl of GlcNAc solution (unlabeled 2.69 mg/ml, labeled 5 µCi/ml, unlabeled:labeled molecule 10,000:1) was injected into knee joint of six rats. These rats (2 animals/time point) were sacrificed at 0, 30 min, and 2 hr after administration of a GlcNAc solution. Two other two rats were injected with normal saline as negative controls. All joints were removed and homogenized with 5 ml of normal saline at 16,000 rpm for about 30 sec. 100 µl of the tissue homogenate was added to 500 µl tissue solubilizer. The solution was incubated at 50 °C for 16 hrs, mixed with 30 µl of glacial acetic acid and 5 ml of liquid scintillation cocktail. The [^3H]GlcNAc activity was measured by a liquid scintillation counter.
Fourteen rats were used for each liposomal formulation. 50 µl of liposome (prepared as disclosed herein, 1.13 µCi/ml, GlcNAc concentration was 0.61 mg/ml, unlabeled:labeled molecule 10,000:1) was injected into each knee joint in twelve rats. Another two rats were injected with 50 µl of normal saline as negative controls. Animals (2 rats/time point) were sacrificed at time points corresponding to 0, 1, 3, 7, 14, 21, and 28 days after administration of GlcNAc. The knee joints were removed and [^3H]GlcNAc activity was determined as disclosed herein.

[7] = test system: chondrocytes; experiment: Cell viability, MTT assay; type: cell-based, human; details: up to 20 mM
[8] = test system: bradykinin-induced pain; experiment: Bradykinin-induced pain after intra-articular administration (walking behavior pain score); type: in vivo; details: Wistar rats, Figure 7
Description: The purpose of this study was to investigate the analgesic effects of GlcNAc with or without liposomal formulations, injected intra-articularly into the joint of Wistar rats. Pain was induced by intra-articular administration of bradykinin. Adult male Wistar rats with a weight range from 220g to 250g were obtained from Laboratory Animals Centre, National University of Singapore. Bradykinin and GlcNAc were obtained from Sigma. The liposomes were prepared as described above. 50 µl of GlcNAc solution or an GIcNAc formulated liposome suspension was injected into a rat joint cavity. An equal volume of saline was given intra-articularly as a control. 50 µl of bradykinin (60 µg/ml or at the indicated concentration) was given intra-articularly at different time points following the administration of GlcNAc. Changes in walking behavior caused by intra-articular injection of bradykinin were used to define induced pain criteria in rats. The methods used to observe the pain response are defined in Table 2. The degree of pain was assigned a score according to the criteria in Table 3. Table 2 [table] [table]

[9] = test system: COX-2 protein; experiment: COX-2 protein expression in IL-1β stimulated chondrocytes (Western Immunoblot); type: cell-based, human
Description: as §1

## CC(=O)N[C@H]1C(O)O[C@H](CO)[C@@H](O)[C@@H]1O (stereo partly shown) [GlcNAc, N-acetylglucosamine]
[1]
  expression of iNOS protein: strongly inhibited
[2]
  TNFα induced nitric oxide (NO) production: inhibit
[3]
  ERK MAP kinase activation: does not inhibit
[4]
  expression of iNOS mRNA: strongly inhibited
[5]
  expression of the constitutively expressed COX-1 protein: did not affect
[6]; Wistar, rat, knee joint homogenate, 0.1345 mg per knee joint, single intra-articular administration, saline solution
  half-life: 4.1 min
[6]; after intra-articular administration
  GlcNAc retention at the rat knee joints: moved out of the rat joint rapidly
[7]
  cell viability: Neither GA nor GlcNAc at dosages up to 20 mM affected cell viability
[8]
  analgesic effects on bradykinin-induced pain (pain scores): small, but statistically insignificantly, analgesic effects; also recorded: small, but statistically insignificant, analgesic effects
[9]
  expression of COX-2 protein: inhibited

From patent EP1379135B1, “FORMULATIONS COMPRISING ENTRAPPED ACTIVE INGREDIENTS AND USES THEREOF” (THE SCRIPPS RESEARCH INSTITUTE, priority 2001, dated 2002)
